We go through eleven molecules from patent US7816560B1, “Long chain n-alkyl compounds and oxa-derivatives thereof” (Thomas Jefferson University, priority 1999, dated 2010).

In one data set the test system is Hepatitis B virus (HBV). Briefly: Secretion of enveloped HBV from Hep G2.2.15 cells, antigen capture/PCR assay. Type of data set: cell-based. To be noted: Hep G2.2.15 cells. The source says:
Pairs of wells were used for each concentration point.
^2IC 50: The concentration of compound that prevented the secretion of 50% of the amount of HBV detected in the medium from wells containing untreated cultures.

Data set [1] deals with T1, ceramide glucosyl transferase (CerGlcT) (Homo sapiens, UniProt Q16739).
T1 sequence (Q16739 1-394): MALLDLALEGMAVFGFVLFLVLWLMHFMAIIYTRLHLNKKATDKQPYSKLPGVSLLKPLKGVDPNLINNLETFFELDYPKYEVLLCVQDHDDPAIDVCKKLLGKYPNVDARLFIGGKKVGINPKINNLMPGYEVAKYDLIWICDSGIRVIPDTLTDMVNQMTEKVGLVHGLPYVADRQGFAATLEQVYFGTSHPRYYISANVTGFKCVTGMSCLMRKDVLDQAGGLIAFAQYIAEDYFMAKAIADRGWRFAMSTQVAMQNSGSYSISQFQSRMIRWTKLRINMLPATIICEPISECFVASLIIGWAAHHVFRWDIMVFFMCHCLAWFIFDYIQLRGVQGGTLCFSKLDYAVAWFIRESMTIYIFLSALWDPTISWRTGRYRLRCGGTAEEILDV
Briefly: Inhibition of ceramide glucosyl transferase / glycolipid synthesis. The format is biochemical. To be noted: for IC50: N-alkyl DNJ derivatives; for Inhibitor of glycolipid synthesis: Yes/No.

For another data set, the system named is MDBK cells. Briefly: Toxicity / cell cytotoxicity in MDBK cells. To be noted: for % Viability at 10 μM: N-alkyl DNJ at 10 μM; for % Viability at 100 μM: N-alkyl DNJ at 100 μM. The format is cell-based.
A further data set deals with α-glucosidase. Briefly: Inhibition of α-glucosidase. Type of data set: biochemical. To be noted: for IC50: N-alkyl DNJ derivatives; for Inhibitor of α glucosidase: Yes/No. An excerpt:
The inhibitory activity (IC50) and the cell cytotoxicity (IC50) of various compounds, as well as their effect on α-glucosidase and ceramide glucosyl transferase, are shown in Table 2.

The test system of a further data set is BVDV. Briefly: BVDV plaque reduction and yield assays in MDBK cells. Type of data set: cell-based, bovine viral diarrhea virus. To be noted: for Anti-viral effect on BVDV in MDBK cells: Yes/No.
Data set [2] in a line: Toxicity / cell cytotoxicity in MDBK cells. Type of data set: cell-based. To be noted: bovine.
The target of a further data set is T2, HBV polymerase (Hepatitis B virus genotype D subtype ayw, UniProt P03156).
T2 construct: HBV virions were purified from the culture medium of untreated cells by ultracentrifugation and the polymerase activity (in the presence of the indicated compounds) tested; expressed in transfected cells; host or cells: Hep G2.2.15 (HepG2 stably transfected with a dimer of the HBV genome); virions pelleted from the culture medium
T2 sequence (P03156 whole entry): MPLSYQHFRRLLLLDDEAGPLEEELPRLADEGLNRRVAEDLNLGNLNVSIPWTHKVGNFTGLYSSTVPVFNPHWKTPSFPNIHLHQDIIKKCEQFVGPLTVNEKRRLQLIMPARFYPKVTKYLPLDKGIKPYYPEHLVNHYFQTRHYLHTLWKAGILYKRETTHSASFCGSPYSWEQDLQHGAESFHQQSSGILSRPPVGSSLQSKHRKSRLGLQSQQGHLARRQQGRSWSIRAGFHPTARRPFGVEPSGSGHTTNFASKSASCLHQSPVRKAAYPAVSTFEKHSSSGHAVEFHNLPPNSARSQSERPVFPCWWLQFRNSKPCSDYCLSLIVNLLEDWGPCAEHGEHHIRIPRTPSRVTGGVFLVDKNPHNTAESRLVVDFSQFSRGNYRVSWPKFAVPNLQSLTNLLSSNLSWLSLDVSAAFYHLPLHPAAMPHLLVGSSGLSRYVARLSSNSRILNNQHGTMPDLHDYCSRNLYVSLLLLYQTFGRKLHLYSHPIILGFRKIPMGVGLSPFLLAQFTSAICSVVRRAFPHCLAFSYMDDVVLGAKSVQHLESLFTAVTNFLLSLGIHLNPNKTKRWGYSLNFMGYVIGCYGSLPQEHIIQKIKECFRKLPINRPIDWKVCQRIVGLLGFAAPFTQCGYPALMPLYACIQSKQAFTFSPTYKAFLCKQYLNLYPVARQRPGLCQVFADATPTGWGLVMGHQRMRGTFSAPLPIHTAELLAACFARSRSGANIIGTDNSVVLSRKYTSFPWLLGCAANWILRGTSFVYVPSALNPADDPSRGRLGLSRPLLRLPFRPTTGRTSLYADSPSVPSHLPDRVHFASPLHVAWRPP
Briefly: Endogenous polymerase assay on purified HBV virions. Type of data set: biochemical. On the procedure:
Endogenous polymerase assay: Media containing HBV from Hep G2.2.15 cells was pelleted through 20% sucrose (SW 28 Rotor, 24,000 RPM) for 16 hours and the pellet re-suspended in 50 μl of a mixture containing 50 mM Tris (pH 7.5), 75 mM NH4Cl, 1 mM EDTA, 25 mM MgCl2, 0.1% β-mercaptoethanol, 0.5% NP-40, 0.4 mM each of dATP, dGTP, dTTP and 10 μl of P^32 labeled dCTP. […] DNA was purified by a phenol/chloroform extraction and ethanol precipitation.
HBV DNA replication involves the conversion of a pregenomic RNA (pgRNA) into DNA by the action of the HBV polymerase. Current nucleoside analogue drugs (e.g., 3TC) for treating HBV target this reaction, preventing the formation and secretion of HBV viral DNA. Because the iminosugar N-nonyl-DGJ prevents the formation of HBV rc DNA, it was important to determine whether N-nonyl-DGJ was acting by inhibiting the elongation step of the polymerase. HBV virions from normal and drug treated Hep G2.2.15 cells were purified and the endogenous polymerase activity was measured. HBV virions were purified from the culture medium of untreated cells by ultracentrifugation and the polymerase activity (in the presence of the indicated compounds) tested by the method of Ganem et al. (1998). Briefly, partially purified viral particles were incubated overnight with the indicated concentrations of compound and 10 μCi of ^32P-dCTP. Viral DNA was purified by phenol extraction and ethanol precipitation and resolved on a 1.2% agarose gel. The gel was dried and viral DNA bands detected using a Phospholmager.

The subject of data set [3] is HBV. Briefly: Secreted HBV DNA by Southern blot hybridization. The format is cell-based, hepatitis B virus. To be noted: HepG2.2.15 cells, seven days. As for the experimental part: Secreted DNA analysis: Secreted DNA analysis was performed by the method of Wei et al. (J. Virol. 70:6455-6458, 1996). […] Media containing drug was changed every two days and on the 7th day the media taken and the virus concentrated by pelleting through 20% sucrose for 16 hours (SW 41 rotor, 36,000 RPM). Virus was resuspended in 400 μL of 10 mM TRIS (pH 7.9), 10 mM EDTA (pH 8.0), and 10 mM MgCl2. Samples were split into two 200 μL aliquots and labeled as +Dnase and −Dnase. To both tubes, 15 μl of proteinase K was added to a final concentration of 750 μg/ml for one hour at 37° C. After one hour, 10 pl Dnase was added to the tube labeled +Dnase (final concentration is 50 units/ml) and incubated at 37° C. for one hour. SDS was added to a final concentration of 1% and additional proteinase K added to a final concentration of 500 μg/ml and the reaction allowed to proceed at 37° C. for 3-4 hours. DNA was than purified by phenol/chloroform extraction. DNA was separated on 1% agarose gel and probed with ^32P labeled probes as described (Mehta et al., Proc. Natl. Acad. Sci. USA 94:1822-1827, 1997).
HepG2.2.15 cells were grown for seven days in the absence or presence of NB-DNJ (1000 μg/ml), NN-DNJ (20 μg/ml) or NN-DGJ (20 μg/ml), respectively. After seven days, virus was isolated from these cell cultures, concentrated, and purified. Secreted HBV DNA was detected by Southern blot hybridization. HBV viral DNA from untreated cells was readily detected. The secretion of HBV DNA from treated HepG2.2.15 was also detected.

Data set [4] relates to HBV. Briefly: Intracellular HBV DNA in HepG2.2.15 cells by Southern blot. The format is cell-based, hepatitis B virus. To be noted: seven days, 3TC 1 μg/ml, NB-DNJ 1000 μg/ml, NN-DNJ and NN-DGJ 2 or 20 μg/ml. As for the experimental part:
Intracellular DNA analysis: Hep G2.2.15 cells were either left untreated or treated with the compounds listed above for seven days and the total DNA extracted as described (Mehta et al., ibid). DNA (20 μg) was digested with HindIII, resolved through a 1.2% agarose gel and transferred to nylon membranes. Membranes were then hybridized with a ^32P labeled probe containing the total HBV genome and developed as described (Lu et al., Proc. Natl. Acad. Sci. USA 94:2380-2385, 1997). The relaxed circular (rc), linear (lin), and closed circular (CCC) DNA were confirmed by enzymatic digestion.
An infected cell contains several forms of HBV DNA which represent different stages in the HBV life cycle. For example, covalently closed circular DNA (CCC DNA) is the nuclear form of the DNA and is thought to be the viral template (Heermann & Gerlich, 1992). In contrast, the relaxed circular DNA (re DNA) and linear forms (lin) are associated with the viral particle and their presence is an indicator of encapsidation of the viral pre-genomic RNA and the subsequent reverse transcription into progeny DNA (Ganem, Curr. Top. Microbiol. Immunol. 168:61-83, 1991). […] The amount of virus associated with the cells was detected seven days later by Southern blot analysis. The locations of the HBV relaxed circular DNA (rcDNA), covalently close circular (CCC) DNA, and single stranded (SS) DNA was identified by relative mobility.

Setting [5] is: MDBK cells, read-out: Anti-viral effect on BVDV in MDBK cells IC50.
Setting [6] is: Bovine viral diarrhea virus isolates and strains, MDBK, read-out: Anti-viral effect on BVDV in MDBK cells IC50.

Read-outs that look alike come from different tables or passages of the source. A value given as a limit tells only on which side of the number the result lay.

The term CC50 denotes the concentration giving 50% cytotoxicity. The term melting point denotes the temperature, or range, at which the solid turns liquid.

As to `Nc1ccn([C@@H]2CS[C@H](CO)O2)c(=O)n1` [3TC, reference compound], the IC50 in the data set with Hepatitis B virus (HBV) (Hepatitis B virus, HepG2.2.15, 216 h, nine days of incubation, read-out: IC 50, secretion of HBV) was found to be 5 µM.
The molecule `CCCCCCN1C[C@H](O)[C@@H](O)[C@H](O)[C@H]1CO` [C6] displayed an IC50 in [1] of 23.8 µM. In addition, in the data set with MDBK cells, the “% Viability at 10 μM” value amounted to 73% and the “% Viability at 100 μM” value was 71%.
On to `CCCCCCCCN1C[C@H](O)[C@@H](O)[C@H](O)[C@H]1CO` [C8], for which the IC50 in [1] turned out to be 16.8 µM. For the same molecule, in the data set on MDBK cells, the “% Viability at 10 μM” value was 70% and the “% Viability at 100 μM” value is 71%.
`CCCCCCCCCCN1C[C@H](O)[C@@H](O)[C@H](O)[C@H]1CO` [C10] came in with an IC50 at α-glucosidase of 0.48 µM. The molecule also gave an IC50 in data set [1] of 3.1 µM. Moreover, in the data set on MDBK cells, the “% Viability at 10 μM” value turned out to be 73% and the “% Viability at 100 μM” value is on record as 43%.
For `CCCCCCCCCCCCN1C[C@H](O)[C@@H](O)[C@H](O)[C@H]1CO` [C12], in data set [1], the IC50 amounted to 5.2 µM. Also, in the data set with MDBK cells, the “% Viability at 10 μM” value was determined as 86% and the “% Viability at 100 μM” value was determined as 1%.
As for `OC[C@H]1NC[C@H](O)[C@@H](O)[C@@H]1O` [DNJ, deoxynorjirimycin, reference compound], the IC50 with BVDV (setting [5]) was 20 µM. The “Anti-viral effect on BVDV in MDBK cells” value with BVDV is “Yes”. In addition, the “Inhibitor of α glucosidase” value with α-glucosidase is “Yes”.
Regarding `CCOCCCCCCN1C[C@H](O)[C@@H](O)[C@@H](O)[C@H]1C` [N-7-oxa-nonyl MeDGJ, N-(7-oxa-nonyl)-1,5,6-trideoxy-1,5-imino-D-galactitol], in the data set with BVDV (BVDV in MDBK cells), the “Selectivity index (CC50/IC50)” value is 1400. Also, the IC50 in the data set with BVDV (setting [6]) was 1.5 µM. For the same molecule, the “Anti-viral effect on BVDV in MDBK cells” value in the data set on BVDV is recorded as “Yes”. Moreover, the “Inhibitor of α glucosidase” value in the data set on α-glucosidase is recorded as “No”. The “Inhibitor of glycolipid synthesis” value in data set [1] is listed as “No”. The molecule also returned a CC50 in [2] of 2100 µM.
Turning to `CCCCN1C[C@H](O)[C@@H](O)[C@@H](O)[C@H]1CO` [N-butyl DGJ, reference compound], the “Anti-viral effect on BVDV in MDBK cells” value in the data set on BVDV was “No”. In the data set on α-glucosidase, the “Inhibitor of α glucosidase” value is on record as “No”.
Consider `CCCCN1C[C@H](O)[C@@H](O)[C@H](O)[C@H]1CO` [N-butyl DNJ, N-butyl deoxynojiricmycin, reference compound], for which the “Effect on HBV polymerase activity” value on HBV polymerase (4.52 mM) is reported as “no effect on polymerase activity”. Further, the IC50 with BVDV (setting [5]) is 60 to 120 µM. Further, the “Anti-viral effect on BVDV in MDBK cells” value with BVDV is “Yes”. Also, the “Decrease of secreted virus DNA” value in the data set with HBV [3] (1000 μg/ml) is given as “about 3 fold”. Further, at α-glucosidase, the IC50 was 0.57 µM and the “Inhibitor of α glucosidase” value was “Yes”. For the same molecule, the “Effect on intracellular HBV DNA” value with HBV [4] is listed as “dramatic increase in the replicative forms of HBV DNA”. Besides, in the data set on MDBK cells, the CC50 was over 10000 µM, the “% Viability at 10 μM” value stood at 74% and the “% Viability at 100 μM” value turned out to be 77%.
`CCCCCCCCCN1C[C@H](O)[C@@H](O)[C@H](O)[C@H]1CO` [N-nonyl DNJ, N-nonyl-deoxynojirimycin]: at HBV polymerase (69 μM), the “Effect on HBV polymerase activity” value was “no effect on polymerase activity”. Further, in the data set with BVDV (setting [5]), the IC50 was in the range of 2 to 3 µM. Further, the “Anti-viral effect on BVDV in MDBK cells” value in the data set with BVDV is listed as “Yes”. Also, the IC50 with Hepatitis B virus (HBV) (antigen capture method, read-out: IC50, HBV secretion) is about 1 µM. Besides, the IC50 in the data set on Hepatitis B virus (HBV) (nine days of incubation, read-out: IC 50, secretion of HBV) fell in the range of 0.4 to 4 µM. Also, the “Decrease of secreted virus DNA” value in the data set on HBV [3] (20 μg/ml) was about 1.5 fold. Moreover, the “TOX 50 (MTT activity reduced to 50%)” value in the data set with Hep G2.2.15 cells is over 100 µM. Besides, in the data set with α-glucosidase, the “Inhibitor of α glucosidase” value was “Yes”. Further, the “Effect on intracellular HBV DNA” value in the data set on HBV [4] is on record as “did not cause a large increase in intracellular HBV DNA but rather a reduction”. Moreover, in the data set on MDBK cells, it took 250 µM to reach half-maximal cytotoxicity (CC50), the “% Viability at 10 μM” value was 56% and the “% Viability at 100 μM” value was 41%.
`CCCCCCCCCN1C[C@H](O)[C@@H](O)[C@@H](O)[C@H]1C` [N-nonyl MeDGJ, N-nonyl-1,5,6-trideoxy-1,5-imino-D-galactitol]: the melting point lay within 49 to 51 °C. In addition, in the data set on BVDV (Bovine viral diarrhea virus isolates and strains, MDBK, read-out: IC50, BVDV plaques), the IC50 is under 2.5 µM. Further, the IC50 with BVDV (setting [6]) fell in the range of 2 to 3 µM. Further, in the data set with BVDV, the “Anti-viral effect on BVDV in MDBK cells” value is recorded as “Yes”. In the data set with α-glucosidase, the “Inhibitor of α glucosidase” value is on record as “No”. Also, the “Inhibitor of glycolipid synthesis” value in [1] is “No”.
